Assay results published in patent US20180371021A1, “PEPTIDOMIMETIC MACROCYCLES AND USES THEREOF” (Aileron Therapeutics, Inc., priority 2017, published 2018).
Bridge positions count the residues as written; N and C are the ends. Square brackets hold non-standard residues; d marks the D form. Peptide text beside a SMILES is read from it. Phe(4-COOH) = N[C@@H](Cc1ccc(C(=O)O)cc1)C(=O)O; R8 = C=CCCCCCC[C@@](C)(N)C(=O)O; Cba = N[C@@H](CC1CCC1)C(=O)O; S5 = C=CCCC[C@](C)(N)C(=O)O

Columns and labels:
[1] = tested on: MCF-7 breast cancer xenograft; assay: MCF-7 breast cancer xenograft study using SP315, SP249 and SP154; assay type: in vivo, mice
Experimental: Slow release 90 day 0.72 mg 17β-estradiol pellets were implanted subcutaneously (sc) on the nape of the neck one day prior to tumor cell implantation (Day −1). On Day 0, MCF-7 tumor cells were implanted sc in the flank of female nude (Cr1:NU-Foxn1nu) mice. On Day 18, the resultant sc tumors were measured using calipers to determine their length and width, and the mice were weighed. The tumor sizes were calculated using the formula (length×width^2)/2, and expressed as cubic millimeters (mm^3). Mice with tumors smaller than 85.3 mm^3 or larger than 417.4 mm^3 were excluded from the subsequent group formation. Thirteen groups of mice, 10 mice per group, were formed by randomization such that the group mean tumor sizes were essentially equivalent (mean of groups±standard deviation of groups=180.7±17.5 mm^3).
The peptide formulations were prepared once for the duration of the study. The vehicle was used as the vehicle control in the subsequent study.
Each group was assigned to a different treatment regimen. Group 1, as the vehicle negative control group, received the vehicle administered at 8 mL/kg body weight intravenously (I.V.) three times per week from Days 18-39. […] Group 4 received 6.7 mg/kg SP249 as an I.V. injection three times per week. […] Group 9 received 30 mg/kg SP252 as an I.V. injection three times per week.
During the dosing period, the mice were weighed and the tumors were measured 1-2 times per week. Tumor growth inhibition was compared with the vehicle group. Tumor growth inhibition (TGI) was calculated as
where x=day that effect of treatment is being assessed.

[2] = tested on: SJSA-1 osteosarcoma xenograft; assay: SJSA-1 osteosarcoma xenograft model, AP1 and palbociclib; assay type: in vivo, mice; conditions: AP1 20 mg/kg qwkx4, palbociclib 75 mg/kg qdx22
Experimental: (§1) The group was not euthanized, and the mice were allowed to recover. […] Animals were monitored individually. […] Responders were followed for a longer period of time. When the endpoint was reached, the animals were euthanized. […] An aqueous phosphate-buffered saline solution or sodium lactate (50 mM, pH 4.0) solution was used as the vehicle.

[3] = tested on: MCF-7.1 human breast carcinoma xenograft; assay: MCF-7.1 human breast carcinoma xenograft model, AP1 and palbociclib; assay type: in vivo, mice; conditions: AP1 20 mg/kg qwkx4, palbociclib 75 mg/kg qdx22
Experimental: as §1, with “Female athymic nude mice were provided with drinking water with 10 μg/mL with 17 beta estradiol supplementation 3 days prior to cell implantation and for the duration of the study. […] The mice were between 8-12 weeks of age at the beginning of the study. […] The” for “The”

[4] = tested on: A549 xenograft; assay: A549 xenograft model, AP1 and palbociclib; assay type: in vivo, mice; conditions: AP1 20 mg/kg qwkx4, palbociclib 75 mg/kg qdx22
Text: The arrows indicate spontaneous tumor shrinkage in vehicle controls. The arrows with * indicate poor growth of tumors late in the study.

[5] = 39 patients treated with nivolumab; 30 patients treated with pembrolizumab; cited from earlier work
[6] = d22, calculated using vehicle median volumes on d0 and d22
[7] = three consecutive measurements > 150% of d1 volume

## CC[C@H](C)[C@H](NC(=O)[C@H](C)NC(=O)[C@H](C)NC(=O)[C@]1(C)CCCC=CCCCCCC[C@@](C)(NC(=O)[C@H](Cc2ccccc2)NC(=O)[C@@H](NC(=O)[C@H](CC(C)C)NC(C)=O)[C@@H](C)O)C(=O)N[C@@H](CCC(=O)O)C(=O)N[C@@H](Cc2ccc(C(=O)O)cc2)C(=O)N[C@@H](Cc2c[nH]c3ccccc23)C(=O)N[C@@H](C)C(=O)N[C@@H](CCC(N)=O)C(=O)N[C@@H](CC2CCC2)C(=O)N1)C(=O)N[C@H](C)C(N)=O [SP249] (Ac-LTF[R8]E[Phe(4-COOH)]WAQ[Cba][S5]AAI[dA]-NH2; staple 4-11)
[1]; […] three times per week
  mice died: 4

## CC(=O)N[C@@H](CC(C)C)C(=O)N[C@H](C(=O)N[C@@H](C)C(=O)N[C@]1(C)CCCCCCC=CCCC[C@@](C)(C(=O)N[C@@H](CO)C(=O)N[C@@H](C)C(=O)N[C@@H](C)C(N)=O)NC(=O)[C@H](CC2CCC2)NC(=O)[C@H](CCC(N)=O)NC(=O)[C@H](C)NC(=O)[C@H](Cc2c[nH]c3ccccc23)NC(=O)[C@H](Cc2ccc(O)cc2)NC(=O)[C@H](CCC(=O)O)NC1=O)[C@@H](C)O [SP252]
[1]; 30 mg/kg three times per week
  body weight loss or deaths: No body weight loss or deaths
[1]; 30 mg/kg three times per week, day 32
  TGI: 88%

## CC(=O)c1c(C)c2cnc(Nc3ccc(N4CCNCC4)cn3)nc2n(C2CCCC2)c1=O [palbociclib, reference compound]
[2]; D1 (start of dosing), SJSA-1 xenograft, nude mice
  Median tumor volume (mm^3) D1: 126 mm^3
[2]; D22, SJSA-1 xenograft, nude mice
  Median tumor volume (mm^3) D22: 1418 mm^3
[2]; SJSA-1 xenograft
  Median time to tumor volume > 1000 mm^3: 18 days
  Median time to tumor volume > 2000 mm^3: 24 days
[2]; [6]
  % TGI (±SEM) on d22 (end of dosing): 51 (9) %
[2]; [7]
  Animals with disease progression: 9/10
[3]; D1 (start of dosing), MCF-7.1 xenograft, nude mice
  Median tumor volume (mm^3) D1: 108 mm^3
[3]; D22, MCF-7.1 xenograft, nude mice
  Median tumor volume (mm^3) D22: 196 mm^3
[3]; MCF-7.1 xenograft
  Median time to tumor volume > 500 mm^3: 37 days
  Median time to tumor volume > 1000 mm^3: 48 days
[3]; [6]
  % TGI (±SEM) on d22 (end of dosing): 84 (4) %
[3]; [7]
  Animals with disease progression: 8/8
[4]; D1 (start of dosing), A549 xenograft, nude mice
  Median tumor volume (mm^3) D1: 126 mm^3
[4]; D22, A549 xenograft, nude mice
  Median tumor volume (mm^3) D22: 288 mm^3
[4]; [6]
  % TGI (±SEM) on d22 (end of dosing): 62 (7) %
[4]; [7]
  Animals with disease progression: 9/10

## nivolumab: PD-1/PD-L1 antagonist
[5]
  PRs: 2
  SDs: 12
  complete responses: 1
  shrinkages among SDs: 2

## pembrolizumab: PD-1/PD-L1 antagonist
[5]
  PRs: 3
  SDs: 11
  complete responses: 2
  shrinkages among SDs: 3
